Reference: PMC3628110, “Mechanism for priming DNA synthesis by yeast DNA Polymerase α” (eLife, 2013)
Substitutions are numbered along the chain they refer to.

Experiments:
[1] = biological target: T1, Pol α (catalytic core, 349–1258) (Saccharomyces cerevisiae, UniProt P13382, R508A/N509A/D998N); assay: primer extension assay, denaturing gel; format: biochemical; conditions: labelled compound ([α-32P]dATP); poly(dT) 70mer template; up to 10 μM protein; 90 s
T1 construct: gene POL1; catalytic core, residues 349-1258 (910 aa); N-terminal dual His/Strep tag, TEV-cleaved; E. coli BL21(DE3)Rosetta2
T1 sequence (P13382 349-1258 R508A/N509A/D998N): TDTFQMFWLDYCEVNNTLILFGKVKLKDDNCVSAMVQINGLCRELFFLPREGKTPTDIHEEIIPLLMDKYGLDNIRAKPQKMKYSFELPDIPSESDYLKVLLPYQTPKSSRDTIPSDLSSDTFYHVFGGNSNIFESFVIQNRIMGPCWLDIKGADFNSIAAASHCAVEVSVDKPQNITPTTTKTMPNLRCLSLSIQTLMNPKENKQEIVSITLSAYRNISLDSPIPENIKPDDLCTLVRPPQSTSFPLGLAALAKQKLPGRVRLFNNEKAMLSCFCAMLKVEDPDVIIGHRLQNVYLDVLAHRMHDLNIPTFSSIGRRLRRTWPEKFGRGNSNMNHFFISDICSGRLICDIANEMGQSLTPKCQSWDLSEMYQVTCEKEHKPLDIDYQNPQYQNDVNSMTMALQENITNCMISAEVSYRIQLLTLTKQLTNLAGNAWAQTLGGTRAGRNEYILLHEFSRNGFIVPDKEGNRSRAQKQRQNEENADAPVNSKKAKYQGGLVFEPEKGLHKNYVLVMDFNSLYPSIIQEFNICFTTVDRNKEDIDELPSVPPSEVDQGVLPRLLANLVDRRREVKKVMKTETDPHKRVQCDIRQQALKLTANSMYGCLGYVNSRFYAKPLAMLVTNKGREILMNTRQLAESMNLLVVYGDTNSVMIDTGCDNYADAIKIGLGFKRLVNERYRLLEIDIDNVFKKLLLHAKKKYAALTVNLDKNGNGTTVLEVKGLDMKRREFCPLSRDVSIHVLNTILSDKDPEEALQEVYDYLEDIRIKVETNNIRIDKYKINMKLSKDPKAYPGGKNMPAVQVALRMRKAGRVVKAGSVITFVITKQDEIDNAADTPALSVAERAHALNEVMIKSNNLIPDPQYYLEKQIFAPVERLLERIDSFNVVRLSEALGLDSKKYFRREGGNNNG

[2] = biological target: T1, Pol α (catalytic core, 349–1258); assay: X-ray crystal structure of ternary complex, […] Å; format: binding; conditions: RNA 10mer primer/DNA 25mer template; 5 mM dGTP; 200 mM Mg acetate; polymerase active site; primer extended by dGMP during crystallization (mass spectrometry)
[3] = biological target: T2, DNA polymerase alpha catalytic core (Pol α), wild type (Saccharomyces cerevisiae, UniProt P13382 349-1258); assay: X-ray crystallography (3.0 Å); 10 mM MgCl2, 1 mM ddCTP in drop (no ddCTP density); Crystals only: binary 0.1 M Bicine pH 8.0, 12% PEG 3350, 10 mM MgCl2, 18 °C; ternary 200 mM Mg acetate, 10% PEG 8000, 5 mM dGTP, micro-batch (3% glycerol). Primer extension assays are turnover only and not listed.; conditions: protein: recombinant; tags: N-terminal dual His/streptavidin tag, TEV-cleaved; 5' overhang 6 nt on template; 10 bp
T2 sequence: T1 sequence (P13382 349-1258 R508A/N509A/D998N) with A160R, A161N, N650D

[4] = biological target: T3, DNA polymerase alpha catalytic core (Pol α), R508A N509A D998N (Saccharomyces cerevisiae, UniProt P13382 349-1258, R508A;N509A;D998N); assay: X-ray crystallography (3.1 Å); dGTP (5 mM) bound in active site; 200 mM Mg acetate; Crystals only: binary 0.1 M Bicine pH 8.0, 12% PEG 3350, 10 mM MgCl2, 18 °C; ternary 200 mM Mg acetate, 10% PEG 8000, 5 mM dGTP, micro-batch (3% glycerol). Primer extension assays are turnover only and not listed.; conditions: protein: recombinant; tags: N-terminal dual His/streptavidin tag, TEV-cleaved; 5' overhang 13 nt on template after extension (15 nt before); 12 bp
T3 sequence: T1 sequence (P13382 349-1258 R508A/N509A/D998N)

Nc1ncnc2c1ncn2[C@H]1C[C@H](O)[C@@H](COP(=O)(O)OP(=O)(O)OP(=O)(O)O)O1 [dATP]
primer extension assay, denaturing gel [1]: Residual activity of the D998N R508A N509A Pol α mutant was demonstrated by the primer extension assay

Nc1nc2c(ncn2[C@H]2C[C@H](O)[C@@H](COP(=O)(O)OP(=O)(O)OP(=O)(O)O)O2)c(=O)[nH]1 [dGTP]
X-ray crystal structure of ternary complex, 3.1 Å [2]: the R508A, N509A, D998N Pol α mutant was used

B1: RNA 10mer primer / DNA 16mer template (binary complex) (DNA:RNA)
?: AGGCGGGCAG
DNA: TTTTCGCTGCCCGCCT
modifications: strand 1 RNA, strand 2 DNA
binding result [3]: binds

B2: RNA 10mer primer extended in crystal by two dG / DNA 25mer template (ternary complex) (DNA:RNA)
?: CGGCGGGCAGGG
DNA: TGAGCGTGTGTACCCCTGCCCGCCG
modifications: strand 1 is RNA 10mer (S5) plus two 3' deoxyguanosines; strand 2 DNA
binding result [4]: binds
